Source: patent US20260042769A1, “TRIARYL AGONISTS OF ALPHA-2 ADRENERGIC RECEPTORS” (ALCEPTOR THERAPEUTICS, INC., priority 2023, published 2026)

Each molecule was assayed against T1, human ADRA2B receptor (Homo sapiens, UniProt P18089) (assay: GTPγS agonist assay, ADRA2B receptor). Details: read-out: GTPase - Human Alpha2B EC50.
T1 construct: expressed in transfected cells
T1 sequence (P18089 1-450): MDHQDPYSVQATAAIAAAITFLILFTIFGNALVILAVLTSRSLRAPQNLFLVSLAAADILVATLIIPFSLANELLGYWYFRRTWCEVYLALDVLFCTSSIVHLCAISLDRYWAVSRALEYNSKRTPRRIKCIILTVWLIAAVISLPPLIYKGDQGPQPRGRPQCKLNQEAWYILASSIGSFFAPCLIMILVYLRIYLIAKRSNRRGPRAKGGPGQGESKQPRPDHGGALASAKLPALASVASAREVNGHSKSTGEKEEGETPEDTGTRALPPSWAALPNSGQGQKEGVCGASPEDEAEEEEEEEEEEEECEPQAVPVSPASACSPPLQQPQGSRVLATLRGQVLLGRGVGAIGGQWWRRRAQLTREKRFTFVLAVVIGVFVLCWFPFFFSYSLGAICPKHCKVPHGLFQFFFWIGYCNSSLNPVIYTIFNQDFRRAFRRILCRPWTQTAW
Format: biochemical
Procedure, shortened: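 CHO-K1 membranes stably expressing human ADRA2B (5 μg protein) in 20 mM HEPES, 10 mM MgCl2, 200 mM NaCl with GDP, preincubated 10 min at room temperature with compound. Binding reaction 1 h at 37° C; bound label collected on GF/C filters, washed, read by scintillation counting.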

Q: How did the EC50 turn out when `COc1nccc(CC(c2c[nH]cn2)c2cccc3c2OCCCO3)n1` (stereo not shown) [Compound 355, 4-[2-(3,4-dihydro-2H-1,5-benzodioxepin-6-yl)-2-(4-imidazolyl)ethyl]-2-methoxypyrimidine] was run?
A: The EC50 was 50 to 500 nM.

Q: With `c1ccc(C[C@@H](c2c[nH]cn2)c2cccc3c2OCC3)nc1` [Compound 44, 2-[(2R)-2-(2,3-dihydro-1-benzofuran-7-yl)-2-(1H-imidazol-4-yl)ethyl] pyridine] as the molecule, how does the EC50 read?
A: The EC50 was 10 to 50 nM.

Q: For `Cc1cccc([C@@H](Cc2ccn(C)n2)c2c[nH]cn2)c1C` [Compound 105, 3-[(R)-2-(4-imidazolyl)-2-(2,3-xylyl)ethyl]-1-methylpyrazole], which EC50 is on record?
A: The EC50 was greater than 500 nM.

Q: `COc1cccc(C[C@@H](c2c[nH]cn2)c2cccc(C)c2C)n1` [Compound 4, 2-[(2R)-2-(2,3-dimethylphenyl)-2-(1H-imidazol-4-yl)ethyl]-6-methoxypyridine] was tested. Which EC50 did it give?
A: Its EC50 is 50 to 500 nM.

Q: For `COc1nccc(CC(c2ccc(C(F)(F)F)cc2)c2c[nH]cn2)n1` (stereo not shown) [Compound 199, 4-{2-(4-imidazolyl)-2-[p-(trifluoromethyl)phenyl]ethyl}-2-methoxypyrimidine], which EC50 is on record?
A: Its EC50 is greater than 500 nM.

Q: For `COc1ccccc1[C@@H](Cc1ccccn1)c1cnc[nH]1` [Compound 32, 2-[(2R)-2-(1H-imidazol-4-yl)-2-(2-methoxyphenyl)ethyl]pyridine], which EC50 is on record?
A: Its EC50 is greater than 500 nM.

Q: For `Cc1cccc(CC(c2cnc[nH]2)c2cccc(C)c2C)n1` (stereo not shown) [Compound 96, 2-[2-(2,3-dimethylphenyl)-2-(1H-imidazol-4-yl)ethyl]-6-methyl-pyridine], which EC50 is on record?
A: The EC50 was 10 to 50 nM.

Q: For `COc1ccccc1[C@H](Cc1ccccn1)c1cnc[nH]1` [Compound 31, 2-[(2S)-2-(1H-imidazol-4-yl)-2-(2-methoxyphenyl)ethyl]pyridine], which EC50 is on record?
A: Its EC50 is greater than 500 nM.

Q: For `COc1c(C)cccc1C(Cc1ccnc(C)n1)c1c[nH]cn1` (stereo not shown) [Compound 148, 4-[2-(4-imidazolyl)-2-(2-methoxy-3-tolyl)ethyl]-2-methylpyrimidine], which EC50 is on record?
A: The EC50 was 50 to 500 nM.

Q: With `Cc1cccc(C(Cc2ccncc2)c2cnc[nH]2)c1C` (stereo not shown) [Compound 97, 4-[2-(2,3-dimethylphenyl)-2-(1H-imidazol-5-yl)ethyl] pyridine] as the molecule, how does the EC50 read?
A: The EC50 was less than 10 nM.

Q: With `COc1nccc(CC(c2c[nH]cn2)c2cccc(C#N)c2F)n1` (stereo not shown) [Compound 177, 2-fluoro-3-[1-(4-imidazolyl)-2-(2-methoxy-4-pyrimidinyl)ethyl] benzonitrile] as the molecule, how does the EC50 read?
A: The EC50 was 50 to 500 nM.

Q: How did the EC50 turn out when `Cc1cnc(C[C@@H](c2cnc[nH]2)c2cccc(C)c2C)nc1` [Compound 75, 2-[(2R)-2-(2,3-dimethylphenyl)-2-(1H-imidazol-4-yl)ethyl]-5-methylpyrimidine] was run?
A: The EC50 was 50 to 500 nM.

Q: How did the EC50 turn out when `COc1ccc(CC(c2c[nH]cn2)c2cccc(C)c2C)nn1` (stereo not shown) [Compound 133, 3-[2-(4-imidazolyl)-2-(2,3-xylyl)ethyl]-6-methoxy-pyridazine] was run?
A: Its EC50 is 10 to 50 nM.

Q: How did the EC50 turn out when `CCOc1ccc(C(Cc2cccnn2)c2c[nH]cn2)cc1C(F)(F)F` (stereo not shown) [Compound 226, 3-(2-[4-ethoxy-3-(trifluoromethyl)phenyl]-2-(4-imidazolyl)ethyl] pyridazine] was run?
A: The EC50 was greater than 500 nM.

Q: How did the EC50 turn out when `Fc1ccc(C(Cc2cccnn2)c2c[nH]cn2)cc1F` (stereo not shown) [Compound 224, 3-[2-(3,4-difluorophenyl)-2-(4-imidazolyl)ethyl] pyridazine] was run?
A: Its EC50 is greater than 500 nM.

Q: For `Cc1ccc(C(F)(F)F)cc1C(Cc1cccnn1)c1c[nH]cn1` (stereo not shown) [Compound 221, 3-{2-(4-imidazolyl)-2-[5-(trifluoromethyl)-2-tolyl]ethyl}pyridazine], which EC50 is on record?
A: The EC50 was greater than 500 nM.

Q: For `COc1nccc(CC(c2c[nH]cn2)c2cccc(C)c2Cl)n1` (stereo not shown) [Compound 186, 4-[2-(2-chloro-3-tolyl)-2-(4-imidazolyl)ethyl]-2-methoxypyrimidine], which EC50 is on record?
A: The EC50 was less than 10 nM.

Q: `COc1cncc(CC(c2cnc[nH]2)c2cccc(C)c2C)n1` (stereo not shown) [Compound 89, 2-[2-(2,3-dimethylphenyl)-2-(1H-imidazol-4-yl)ethyl]-6-methoxy-pyrazine] was tested. Which EC50 did it give?
A: The EC50 was less than 10 nM.

Q: For `Cc1cccc([C@@H](Cc2ccc(=O)[nH]n2)c2cnc[nH]2)c1C` [Compound 77, 6-[(2R)-2-(2,3-dimethylphenyl)-2-(1H-imidazol-4-yl)ethyl]-2,3-dihydropyridazin-3-one], which EC50 is on record?
A: The EC50 was less than 10 nM.

Q: With `COc1cc(OC(F)(F)F)cc(C(Cc2ccnc(OC)n2)c2c[nH]cn2)c1` (stereo not shown) [Compound 204, 4-[2-(4-imidazolyl)-2-(3-methoxy-5-trifluoromethoxyphenyl)ethyl]-2-methoxypyrimidine] as the molecule, how does the EC50 read?
A: Its EC50 is greater than 500 nM.

Q: `Cc1cccc(C(Cc2ccnnc2)c2cnc[nH]2)c1C` (stereo not shown) [Compound 85, 4-[2-(2,3-dimethylphenyl)-2-(1H-imidazol-4-yl)ethyl] pyridazine] was tested. Which EC50 did it give?
A: The EC50 was 10 to 50 nM.

Q: For `COc1cccc(C[C@H](c2c[nH]cn2)c2cccc(Cl)c2OC)n1` [Compound 7, 2-[(2S)-2-(3-chloro-2-methoxyphenyl)-2-(1H-imidazol-4-yl)ethyl]-6-methoxypyridine], which EC50 is on record?
A: Its EC50 is 10 to 50 nM.

Q: How did the EC50 turn out when `Cc1csc(CC(c2c[nH]cn2)c2cccc(C)c2C)n1` (stereo not shown) [Compound 132, 2-[2-(4-imidazolyl)-2-(2,3-xylyl)ethyl]-4-methyl-1,3-thiazole] was run?
A: The EC50 was less than 10 nM.

Q: With `Cc1cccc([C@@H](Cc2ccccn2)c2cnc[nH]2)c1F` [Compound 40, 2-[(2R)-2-(2-fluoro-3-methylphenyl)-2-(1H-imidazol-4-yl)ethyl] pyridine] as the molecule, how does the EC50 read?
A: The EC50 was 10 to 50 nM.

Q: How did the EC50 turn out when `Cc1cc(C[C@@H](c2c[nH]cn2)c2cccc(C)c2C)no1` [Compound 135, 3-[(R)-2-(4-imidazolyl)-2-(2,3-xylyl)ethyl]-5-methyl-isoxazole] was run?
A: The EC50 was greater than 500 nM.

Q: Which EC50 does the source give for `COc1nccc(CC(c2ccc(Cl)cc2)c2c[nH]cn2)n1` (stereo not shown) [Compound 159, 4-[2-(p-chlorophenyl)-2-(4-imidazolyl)ethyl]-2-methoxypyrimidine] here?
A: Its EC50 is 50 to 500 nM.

Q: Which EC50 does the source give for `Cc1cccc([C@H](Cc2cccnn2)c2c[nH]cn2)c1F` [Compound 138, 3-[(S)-2-(2-fluoro-3-tolyl)-2-(4-imidazolyl)ethyl] pyridazine] here?
A: Its EC50 is greater than 500 nM.

Q: `COc1cccc(C[C@H](c2cnc[nH]2)c2cccc(C)c2OC)n1` [Compound 9, 2-[(2S)-2-(1H-imidazol-4-yl)-2-(2-methoxy-3-methylphenyl)ethyl]-6-methoxypyridine] was tested. Which EC50 did it give?
A: Its EC50 is less than 10 nM.

Q: With `FC(F)(F)Oc1ccccc1[C@H](Cc1ccccn1)c1cnc[nH]1` [Compound 29, 2-[(2S)-2-(1H-imidazol-4-yl)-2-[2-(trifluoromethoxy)phenyl]ethyl] pyridine] as the molecule, how does the EC50 read?
A: Its EC50 is greater than 500 nM.

Q: Which EC50 does the source give for `COc1ccc(Cl)c(C(Cc2cccnn2)c2c[nH]cn2)c1` (stereo not shown) [Compound 227, 3-[2-(2-chloro-5-methoxyphenyl)-2-(4-imidazolyl)ethyl] pyridazine] here?
A: The EC50 was greater than 500 nM.

Q: `COc1cccc(C[C@H](c2c[nH]cn2)c2cccc(C)c2F)n1` (single isomer, unassigned) [Compound 5] was tested. Which EC50 did it give?
A: The EC50 was less than 10 nM.

Q: For `Cc1cccc(C(Cc2cnco2)c2c[nH]cn2)c1C` (stereo not shown) [Compound 134, 5-[2-(4-imidazolyl)-2-(2,3-xylyl)ethyl]-1,3-oxazole], which EC50 is on record?
A: Its EC50 is less than 10 nM.

Q: How did the EC50 turn out when `Cc1cncc(C[C@H](c2cnc[nH]2)c2cccc(C)c2C)n1` [Compound 82, 2-[(2S)-2-(2,3-dimethylphenyl)-2-(1H-imidazol-4-yl)ethyl]-6-methylpyrazine] was run?
A: The EC50 was 50 to 500 nM.

Q: Which EC50 does the source give for `COc1ncc(CC(c2c[nH]cn2)c2cccc3c2OCC3)c(OC)n1` (stereo not shown) [Compound 312, 5-[2-(2,3-dihydro-1-benzofuran-7-yl)-2-(4-imidazolyl)ethyl]-2,4-dimethoxypyrimidine] here?
A: Its EC50 is 10 to 50 nM.

Q: Which EC50 does the source give for `Cc1cccc([C@H](Cc2cncs2)c2c[nH]cn2)c1C` [Compound 129, 5-[(S)-2-(4-imidazolyl)-2-(2,3-xylyl)ethyl]-1,3-thiazole] here?
A: Its EC50 is less than 10 nM.

Q: How did the EC50 turn out when `Cc1cccc(C(Cc2cnn(C3CC3)c2)c2c[nH]cn2)c1C` (stereo not shown) [Compound 271, 1-cyclopropyl-4-[2-(4-imidazolyl)-2-(2,3-xylyl)ethyl]pyrazole] was run?
A: The EC50 was less than 10 nM.

Q: Which EC50 does the source give for `Cc1cccc([C@@H](Cc2cccc(C(F)(F)F)n2)c2c[nH]cn2)c1C` [Compound 81, 2-[(2R)-2-(2,3-dimethylphenyl)-2-(1H-imidazol-4-yl)ethyl]-6-(trifluoromethyl) pyridine] here?
A: The EC50 was greater than 500 nM.

Q: For `Cc1cccc(C(Cc2cscn2)c2c[nH]cn2)c1C` (stereo not shown) [Compound 118, 4-[2-(4-imidazolyl)-2-(2,3-xylyl)ethyl]-1,3-thiazole], which EC50 is on record?
A: The EC50 was 10 to 50 nM.

Q: How did the EC50 turn out when `COc1c(C)cccc1[C@@H](Cc1ccccn1)c1cnc[nH]1` [Compound 34, 2-[(2R)-2-(1H-imidazol-4-yl)-2-(2-methoxy-3-methylphenyl)ethyl]pyridine] was run?
A: Its EC50 is greater than 500 nM.

Each molecule was assayed against T1, human ADRA2B receptor (assay: ADRA2B arrestin agonist assay). Details: CHO-K1 cells stably expressing human ADRA2B; read-out: Beta-Arrestin - Human Alpha2B EC50.
Format: cell-based
Experimental: ADRA2A and ADRA2B Arrestin Agonist Assay Method
The arrestin assay uses frozen CHO-K1 cell lines stably expressing human ADRA2A and ADRA2B receptors. Cells are frozen following normal cell freezing protocols. Briefly, cells are washed with PBS and then dissociated with 0.25% trypsin. Dissociated cells are quenched in full media and then collected by centrifugation at 290×g for 5 minutes. […] Cells are stored at −80° C. (or in liquid N2 if stored >6 months) until the day of the assay.
On the day before the assay, frozen cells are thawed in a 37° C. water bath, brought up in 20 mL of full media, and collected via centrifugation at 290×g for 5 minutes. […] Cells are incubated overnight in a 37° C., 5% CO2 cell incubator.
On the day of the assay, agonists are diluted in Opti-MEM to 3.5x of the final assay concentration. 4 μL of agonists are added to the cells and incubated for 2 hours at 37° C. in a 5% CO2 cell incubator. 6 μL of arrestin detection reagents are dispensed onto the cells and the plates are incubated for 2 hours at room temperature. […] Plates are read on an Envision luminescence plate reader.

Q: For `Cc1cccc([C@@H](Cc2cc[nH]n2)c2c[nH]cn2)c1C` [Compound 234, 3-[(R)-2-(4-imidazolyl)-2-(2,3-xylyl)ethyl]pyrazole], which EC50 is on record?
A: Its EC50 is greater than 500 nM.
